Source: patent US20080319184A1, “Uses of Dinucleotide Polyphosphate Derivatives” (priority 2005, published 2008)
“Also recorded” adds a separate entry of the source. Like-named read-outs stand apart in the source and are kept apart here.

Tests used:
[1] = test system: orthodromically evoked field potentials in CA1 zone of rat hippocampal slices; conditions: cited from earlier work
[2] = test system: excitatory postsynaptic currents in CA1 pyramidal neuron; conditions: cited from earlier work
[3] = test system: orthodromically evoked field potentials in CA1 zone of rat hippocampal slices; assay: Orthodromically induced population spikes (field potentials) in CA1 zone of rat hippocampal slices; format: cell-based; conditions: for inhibition of orthodromically evoked field potentials by known P2X/P2Y agonists: in the same way as AppCH2ppA, FIG. 8, FIG. 9
Description: This study was carried out on 21-day old Wistar rats (WAG/GSto, Moscow, Russia). After rapid decapitation, rat brains were immediately transferred to a Petri dish with chilled (4° C.) solution of the composition 120 mM NaCl, 5 mM KCl, 26 mM NaHCO3, 2 mM MgCl2 and 20 mM glucose. Calcium salts were omitted to reduce possible neuronal damage. The solution was constantly bubbled with 95%O2/5%CO2 gas mixture to maintain pH7.4. Hippocampal slices ([…] thick) were cut manually with a razor blade along the alveolar fibres to preserve the lamellar structure of excitatory connections. During preincubation and experiments, the slices were kept fully submerged in the extracellular solution, pH7.4, comprised of 135 mM NaCl, 5 mM KCl, 26 mM NaHCO3, 1.5 mM CaCl2, 1.5 mM MgCl2, and 20 mM glucose, subjected to continuous bubbling with 95% O2/5% CO2) at 30-31° C. […] (RBI, Natick, Mass., USA) was also included into the extracellular solution during experiments to suppress the inhibitory activity of interneurons. Electrophysiological measurements were recording after at least 2 h of preincubation.
Excitatory postsynaptic currents (EPSCs) were recorded by a standard whole-cell patch clamp technique in the CA1 subfield of the hippocampus in response to stimulation of the Schaffer collateral/commissural pathway. To prevent the spread of electrical activity from area CA3, mini-slices were prepared by making a cut orthogonal to the stratum pyramidale extending to the mossy fibre layer. The intracellular solution, pH 7.2, for patch pipettes was comprised of 100 mM CsF (Merck, Darmstadt, FRG), 40 mM NaH2PO4, 10 mM HEPES-CsOH, 10 mM Tris-HCl. […] Access resistance was monitored throughout the experiments and ranged typically from 6 to 9MΩ. […] Extracellular field potentials were recorded using Ni/Cr electrodes. […] The effects of receptor agonists of antagonists were measured as the mean ratio I/Io where I was the current under the substances action and Io was the current in control saline. […]

[4] = test system: orthodromically evoked field potentials in CA1 zone of rat hippocampal slices; assay: as above; format: cell-based
[5] = test system: NMDA-receptor-mediated channels; assay: NMDA-activated current in isolated hippocampal pyramidal neurons (whole-cell patch clamp); format: cell-based, rat
Description: NMDA-receptor-activated currents were evoked by 1-2 sec long co-application of aspartate (ASP) (1 mM) and glycine (10 μM). Vh=−100 mV in Mg^2+ free solution.
Wistar rats (12-17-days old) were decapitated under ether anaesthesia and the hippocampus (or cerebellum) was removed. It was cut into slices (300-500 μm) in a solution containing (in mM): 150 NaCl; 5 KCl; 1.25 NaH2PO4; 26 NaHCO3; 1.1 MgCl2; 10 glucose; pH 7.4. Then the slices were incubated for 10 min at 32° C. with 0.5 mg/ml of protease (type XXIII) from Aspergillus oryzae. Single pyramidal cells from CA1 and CA3 stratum pyramidale layers were isolated by vibrodissociation locally in the stratum pyramidale CA3 and CA1 hippocampal pyramidal neurons were identified by their characteristic form and partially preserved dendritic arborisation.
After isolation the cells were usually suitable for recordings for 2-4 h. Throughout the entire procedure the solutions with the slices were continuously saturated with 95% O2 and 5% CO2 gas mixture to maintain pH 7.4. The tested substances were dissolved in DMSO to a stock concentration of 10 mM and kept frozen at −40° C. in daily aliquots. The substances were dissolved in external saline to their final concentration immediately before the experiments.
NMDA-activated currents in isolated neurons were induced by the step application of aspartate (1 mM) and […] in the “concentration clamp” mode (Krishtal et al., 1983), using the computerized “Pharma-Robot” set-up (Pharma-Robot, Kiev). This equipment allows a complete change of saline within 15 ms. Transmembrane currents were recorded using a conventional patch-clamp technique, in the whole-cell configuration. […] The intracellular solution contained (in mM): 70 Tris-PO4; 5 EGTA; 40 TEA-Cl (tetraethylammonium chloride); 30 Tris-Cl; 5 Mg-ATP; 0.5 GTP; pH 7.2. The composition of extracellular solution was (in mM):. 130 NaCl; 3 CaCl2; 5 KCl; 2 MgCl2; 10 HEPES-NaOH; 0.1 μM TTX; pH 7.4. Recording of the currents was performed using patch-clamp amplifiers (DAGAN, USA). Transmembrane currents were filtered at 3 kHz, stored and analysed with an IBM-PC computer using homemade software. NMDA responses were recorded with a 3 min interval. All experiments were performed at room temperature (19-24° C.).

[6] = test system: antidromically induced population spikes in CA1 zone of rat hippocampal slices; assay: Antidromically induced population spikes in CA1 zone of rat hippocampal slices; format: cell-based
Description: (§1) This study was carried out on 21-day old Wistar rats (WAG/GSto, Moscow, Russia). After rapid decapitation, rat brains were immediately transferred to a Petri dish with chilled (4° C.) solution of the composition 120 mM NaCl, 5 mM KCl, 26 mM NaHCO3, 2 mM MgCl2 and 20 mM glucose. Calcium salts were omitted to reduce possible neuronal damage. The solution was constantly bubbled with 95%O2/5%CO2 gas mixture to maintain pH7.4. Hippocampal slices ([…] thick) were cut manually with a razor blade along the alveolar fibres to preserve the lamellar structure of excitatory connections. […]
(§2) Excitatory postsynaptic currents (EPSCs) were recorded by a standard whole-cell patch clamp technique in the CA1 subfield of the hippocampus in response to stimulation of the Schaffer collateral/commissural pathway. […] Access resistance was monitored throughout the experiments and ranged typically from 6 to 9MΩ. […] Extracellular field potentials were recorded using Ni/Cr electrodes. […] The effects of receptor agonists of antagonists were measured as the mean ratio I/Io where I was the current under the substances action and Io was the current in control saline. […]

[7] = test system: excitatory postsynaptic currents in CA1 pyramidal neuron; assay: Excitatory postsynaptic currents (EPSCs), whole-cell patch clamp in CA1 pyramidal neuron of hippocampal slices; format: cell-based, rat
Description: as §1, §2

[8] = test system: CFA-induced thermal hyperalgesia; assay: CFA-induced thermal hyperalgesia (Plantar test, paw withdrawal latency); format: in vivo, rat
Description: CFA-Induced Thermal Hyperalgesia. Unilateral inflammation was induced by injecting 100 μl of 50% solution of CFA (Sigma) in physiological saline into the plantar surface of the right hind paw of the rat. The hyperalgesia to thermal stimulation was determined 48 h after CFA injections using the same apparatus as described below for the noxious acute thermal assay.
Thermal sensitivity: On each day following mechanical testing, rats will be placed in a thermal testing apparatus (Plantar test, Ugo Basile, Italy), in which they will be free to move. After 30 min of acclimatization, a constant-power IR stimulus will be focused through the glass base on to the sole of the foot, and the latency for reflex foot withdrawal will be recorded automatically via a photoelectric monitor as previously described Hargreaves et al. 1988.
In each test session, each rat (from 6 tested rats) was tested in three sequential trials at approximately 15 min intervals.

In the case of `Nc1ncnc2c1ncn2[C@@H]1O[C@H](COP(=O)(O)OP(=O)(O)OP(=O)(O)OP(=O)(O)OC[C@H]2O[C@@H](n3cnc4c(N)ncnc43)[C@H](O)[C@@H]2O)[C@@H](O)[C@H]1O` [Ap4A, diadenosine 5′,5′″-P^1,P^4-tetraphosphate], the “effect on orthodromically evoked field potentials” value ([1]; literature) is given as “inhibition” and the “effect on excitatory postsynaptic currents” value ([2]; literature) is given as “inhibition”.

In the case of `Nc1ncnc2c1ncn2[C@@H]1O[C@H](COP(=O)(O)CP(=O)(O)OP(=O)(O)O)[C@@H](O)[C@H]1O` [α,β-methylene-ATP], the “inhibition of orthodromically evoked field potentials by known P2X/P2Y agonists” value [3] is reported as “unable to inhibit”.

For `Nc1ncnc2c1ncn2[C@@H]1O[C@H](CO)[C@@H](O)[C@H]1O` [adenosine], the “effect on orthodromic spikes” value ([1]; 5 μM, shown previously (literature)) is listed as “inhibit” and the “effect on EPSC amplitudes” value ([2]; shown previously (literature)) is listed as “diminish”.

For `Nc1ncnc2c1ncn2[C@@H]1O[C@H](COP(=O)(O)OP(=O)(O)CP(=O)(O)OP(=O)(O)OC[C@H]2O[C@@H](n3cnc4c(N)ncnc43)C(O)C2O)C(O)C1O` (stereo partly shown) [AppCH2ppA], the “effect on amplitude of orthodromically induced population spikes in presence of Ip4I” value ([4]; Ip4I 20 μM, then 7.4 μM (FIG. 10)) was “did hot alter”, the “blocking effect on the orthodromic spikes in presence of PPADS” value ([4]; PPADS 20 μM applied first (FIG. 6)) was “completely abolished” and the “reduction by PTIO of the extent of inhibition of orthodromically evoked field potentials” value ([4]; PTIO 1 mM, then 2.5 μM (FIG. 12)) was “over 50%”. For the same compound, the “inhibition of orthodromically evoked field potentials in presence of adenosine deaminase” value ([4]; adenosine deaminase approx. 2 U/ml, then 7.4 μM) was “eliminated”, the “inhibition of orthodromically evoked field potentials in presence of bicuculine” value ([4]; bicuculine 50 μM, then 7.4 μM) was “unaffected” and the “inhibition of orthodromically evoked field potentials in presence of CPT” value ([4]; cyclopentyl teophylline (CPT) 1 μM, then 7.4 μM (FIG. 7)) was “eliminated”. The “inhibition of orthodromically evoked field potentials in presence of hexamethonium” value ([4]; hexamethonium 100 μM, then 7.4 μM) was “unaffected”, the “inhibition of orthodromically evoked field potentials in presence of strychnine” value ([4]; strychnine 500 nM, then 7.4 μM) was “unaffected” and the “effect on NMDA-activated current in presence of reactive blue” value ([5]; P2Y receptor antagonist reactive blue) was “eliminated”. The “effect on NMDA-activated current in presence of EDTA” value ([5]; chelator of bivalent cations EDTA) was “removed”, the “amplitude of the NMDA-activated current” value ([5]; low micromolar concentrations, concentration-dependent manner) was “increased” and the “effect on NMDA-activated current after pre-treatment with genestein” value ([5]; non-specific tyrosine protein kinase inhibitor genestein) was “abolished”. The “effect on NMDA-activated current in presence of PPADS” value ([5]; purine P2 receptor antagonist PPADS) was “eliminated”, the “amplitudes of antidromic spikes” value ([6]; CA3-CA1 synapses, 1.9-7.4 μm (FIG. 5B)) was “remained unchanged” and the “effect on amplitude of antidromically induced population spikes in presence of Ip4I” value ([6]; Ip4I 20 μM, then 7.4 μM (FIG. 11)) was “did not cause AppCH2ppA to have an effect”. For the same compound, the EPSC decay ([7]; FIG. 5C) was “unchanged”, the “amplitudes of EPSCs” value ([7]; recorded in CA1 pyramidal neuron, 1.9-7.4 μm (FIG. 5C)) was “remained unchanged” and the CFA-induced thermal hyperalgesia ([8]; 50 μmol/kg s.c.) was “attenuates”. For the same compound, the “thermal hyperalgesia, contra lateral paw” value ([8]; 50 μmol/kg s.c. (FIG. 18)) was “attenuates”, the “paw withdrawal latencies, contra lateral (non-inflamed) paw” value ([8]; 48 h (FIG. 18)) was “increases” and the “paw withdrawal latencies, CFA-injected paw” value ([8]; 48 h after intraplantar CFA (FIG. 17)) was “increases”. The “paw withdrawal latencies for the uninjured paw” value ([8]; at the doses tested, compared with injured paw) was “less effectively altered”, the “thermal hyperalgesia, injured paw” value ([8]; s.c. administration, 48 h after intraplantar CFA (FIG. 17)) was “evidently potent; also recorded: fully blocked” and the “onset of antinociceptive effects in the injured paw after injection” value ([8]; s.c., injured paw) was 3 h. For the same compound, the “effect on orthodromically evoked field potentials” value ([3]; 1.9, 3.7 and 7.4 μm applied in steps, all synaptic pathways incl. CA3-CA1 synapses (FIG. 5A)) was “fast and reversible inhibition”.

For `Nc1ncnc2c1ncn2[C@@H]1O[C@H](COP(=O)(O)OP(=O)(O)OP(O)(O)=S)[C@@H](O)[C@H]1O` [ATPγS], the “inhibition of orthodromically evoked field potentials by known P2X/P2Y agonists” value [3] was “unable to inhibit”.
